# From article PMC7794631 (Medicinal Chemistry Research, 2021)
# Like-named read-outs stand apart in the source and are kept apart here.
# How the values were obtained:
# [1] = system: IAV A/WS/33 (H1N1)
# [2] = in vitro; conditions: dog
# [3] = in vitro; conditions: human, Compound only, percent viable cells ± standard deviation
# [4] = system: HCMV ADCREGFP; conditions: HFFs; for EC50: read-out: EC50 (μM) ± s.d., GFP reporter HCMV, GFP expression 6 days after compound, mean of 2–3 dose–response determinations
# [5] = system: HFFs; assay: Cell viability assay; type: cell-based, human; conditions: read-out: CC50 (μM) ± s.d., 6 days, MTS assay, mean of 2–3 dose–response determinations
# [6] = system: MDCK cells; conditions: 24 h, T-1105 at 12.5 μM
# [7] = system: Huh-7 cells; conditions: at 0.1 μM, Huh-7, 5 days
# [8] = system: IAV A/WS/33 (H1N1); assay: microbe, parasite or virus in culture; conditions: Influenza A virus, H1N1, MDCK, 24 h
# [9] = system: IAV A/WS/33 (H1N1); conditions: cited from earlier work
# [10] = system: HCMV ADCREGFP; conditions: cited from earlier work
# [11] = system: HCMV immediate-early protein 1 (IE1); conditions: infected and treated cells; cited from earlier work
# [12] = system: HCMV immediate-early protein 2 (IE2); conditions: infected and treated cells; cited from earlier work
# [13] = system: HCoV-OC43; conditions: at 1 μM, Huh7, 5 days
# [14] = MDCK CPE assay, p97 inhibitors 0.1, 0.25, 0.5 μM, T-1105 at 12.5 μM
structure (smiles),measurement,setting,value
Cc1cc2c(C(N)=O)cccc2n1-c1nc2c(c(NCc3ccccc3)n1)COCC2 [CB-5083],anti-IAV activity (in words),[1],no detectable anti-IAV activity
same,viability at 0.1 µM,[2],97 ± 3%
same,viability at 0.25 µM,[3],59 ± 3%
same,viability at 0.5 µM,[3],38 ± 1%
same,EC50,[4],0.72 ± 1.1 µM
same,CC50,[5],0.53 ± 0.1 µM
"NC(=O)c1nccnc1O [Compound T-1105, 3-hydroxypyrazine-2-carboxamide]",anti-IAV activity (in words),[1]; [14],Clear antiviral effects
same,cell viability in IAV assay (in words),[6],retention of cell viability
Cc1cc(OCc2nnc(SC3CCCC3)n2-c2cccnc2)ccc1-c1ccc(S(C)(=O)=O)cc1 [NMS-873],effect on cell viability (in words),[7],clear effect on cell viability
same,anti-IAV activity (in words),[1]; [14],Clear antiviral effects
same,inhibition at 0.1 µM,"[8]; read-out: Compound + Virus, percent viable cells ± standard deviation, 0.1 μM, MDCK, 24 h",21 ± 7%
same,inhibition at 0.25 µM,"[8]; read-out: Compound + Virus, percent viable cells ± standard deviation, 0.25 μM, MDCK, 24 h",62 ± 6%
same,viability at 0.1 µM,[2],89 ± 3%
same,viability at 0.25 µM,[2],80 ± 2%
same,viability at 0.5 µM,[2],94 ± 2%
same,IAV virus production (in words),[9],inhibits virus production
same,HCMV replication (in words),[10],reduced virus replication
same,"TI, tissue culture therapeutic index (CC50/EC50)",[4]; HCMV,1.9
same,EC50,[4],2.2 ± 2.5 µM
same,CC50,[5],4.1 ± 3.3 µM
same,IE1 expression,[11],not affected
same,IE2 expression,[12],reduced
same,cell viability in IAV assay (in words),[6],retention of cell viability
"CCC(CC)COC(=O)[C@H](C)N[P@](=O)(OC[C@H]1O[C@@](C#N)(c2ccc3c(N)ncnn23)[C@H](O)[C@@H]1O)Oc1ccccc1 [RDV, remdesivir]",protection against HCoV-OC43 CPE,[13],100%
